AC50 data for 14 molecules are collected here from patent US20260138961A1, “MODULATORS OF MITOCHONDRIAL DNA REPLICATION” (Pretzel Therapeutics, Inc., priority 2022, published 2026).

The first experiment addresses T1, POLγA:G848S (Homo sapiens, UniProt P54098, G848S).
T1 sequence (P54098 1-1239 G848S): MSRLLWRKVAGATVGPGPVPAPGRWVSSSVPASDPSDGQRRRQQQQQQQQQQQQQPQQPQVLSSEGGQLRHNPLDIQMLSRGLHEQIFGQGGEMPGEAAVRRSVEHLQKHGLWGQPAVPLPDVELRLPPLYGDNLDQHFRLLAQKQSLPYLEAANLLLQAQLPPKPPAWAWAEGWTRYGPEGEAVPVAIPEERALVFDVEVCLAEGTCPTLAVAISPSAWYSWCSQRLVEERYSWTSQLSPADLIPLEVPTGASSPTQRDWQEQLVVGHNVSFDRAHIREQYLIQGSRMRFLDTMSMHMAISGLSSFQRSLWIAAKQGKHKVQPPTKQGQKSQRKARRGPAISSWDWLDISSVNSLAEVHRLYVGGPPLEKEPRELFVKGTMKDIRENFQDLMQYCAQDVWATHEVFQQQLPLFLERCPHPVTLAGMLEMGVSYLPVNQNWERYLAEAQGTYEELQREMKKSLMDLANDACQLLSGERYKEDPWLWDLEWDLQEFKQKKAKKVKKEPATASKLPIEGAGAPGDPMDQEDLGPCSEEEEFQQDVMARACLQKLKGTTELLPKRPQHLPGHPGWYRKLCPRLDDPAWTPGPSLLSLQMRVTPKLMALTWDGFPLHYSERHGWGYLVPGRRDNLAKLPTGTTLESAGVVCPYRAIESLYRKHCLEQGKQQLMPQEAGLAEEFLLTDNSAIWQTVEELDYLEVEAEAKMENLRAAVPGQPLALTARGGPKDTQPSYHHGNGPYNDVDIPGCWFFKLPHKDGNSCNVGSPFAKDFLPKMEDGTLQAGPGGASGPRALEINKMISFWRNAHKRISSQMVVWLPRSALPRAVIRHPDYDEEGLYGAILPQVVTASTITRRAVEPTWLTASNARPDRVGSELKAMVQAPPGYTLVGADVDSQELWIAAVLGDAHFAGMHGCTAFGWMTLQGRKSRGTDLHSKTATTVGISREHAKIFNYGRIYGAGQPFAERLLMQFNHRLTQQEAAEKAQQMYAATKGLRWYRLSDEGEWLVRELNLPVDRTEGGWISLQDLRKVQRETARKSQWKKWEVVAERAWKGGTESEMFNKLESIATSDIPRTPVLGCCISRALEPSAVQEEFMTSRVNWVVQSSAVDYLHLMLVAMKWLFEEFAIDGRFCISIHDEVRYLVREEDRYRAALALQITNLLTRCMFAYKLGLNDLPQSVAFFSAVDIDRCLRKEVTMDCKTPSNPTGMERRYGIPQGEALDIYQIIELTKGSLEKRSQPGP
T1 sequence (Q9UHN1 1-485 partner): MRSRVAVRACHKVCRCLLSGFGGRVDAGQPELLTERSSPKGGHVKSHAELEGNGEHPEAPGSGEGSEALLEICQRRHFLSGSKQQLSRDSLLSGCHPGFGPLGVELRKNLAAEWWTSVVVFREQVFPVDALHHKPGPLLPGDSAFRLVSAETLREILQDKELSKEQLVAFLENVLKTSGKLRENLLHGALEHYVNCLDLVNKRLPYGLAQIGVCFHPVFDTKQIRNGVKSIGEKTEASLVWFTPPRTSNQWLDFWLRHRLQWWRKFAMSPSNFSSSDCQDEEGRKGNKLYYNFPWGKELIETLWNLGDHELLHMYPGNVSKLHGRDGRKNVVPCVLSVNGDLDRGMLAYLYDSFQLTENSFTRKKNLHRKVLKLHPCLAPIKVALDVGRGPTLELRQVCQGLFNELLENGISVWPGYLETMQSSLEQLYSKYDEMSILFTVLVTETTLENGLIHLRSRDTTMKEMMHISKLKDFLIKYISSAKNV
Briefly: DNA polymerization assay, POLγA:G848S mutant. It counts as biochemical. The following applies: G848S AC50, stimulation of polymerase activity, primed M13mp18 ssDNA, 37° C. 2 hours.
Usually AC50 stands for the concentration giving half of the maximal activity seen. The molecule `Cc1cc(S(=O)(=O)Nc2noc(-c3ccccc3)n2)c(C)cc1Cl` [Example 142, 4-chloro-2,5-dimethyl-N-(5-phenyl-1,2,4-oxadiazol-3-yl)benzenesulfonamide] displayed an AC50 above 100 µM.

Still in this experiment, the particulars now being: stimulation of polymerase activity, primed M13mp18 ssDNA, 37° C. 2 hours; read-out: G848S AC50.
`O=S(=O)(Nc1csc(-c2ccccc2)n1)c1ccc(C(F)(F)F)cc1F` [Example 141, 2-fluoro-N-(2-phenylthiazol-4-yl)-4-(trifluoromethyl)benzenesulfonamide]: the AC50 is above 100 µM. Same read-out and setting: the figure for `Cc1cc(S(=O)(=O)Nc2nc(-c3ccccc3)no2)c(C)cc1Cl` [Example 143, 4-chloro-2,5-dimethyl-N-(3-phenyl-1,2,4-oxadiazol-5-yl)benzenesulfonamide] is above 100 µM. Turning to `Cc1cc(S(=O)(=O)Nc2cccc(C(=O)N3CCC[C@H]3CO)c2)c(C)cc1Cl` [Example 145, (S)-4-chloro-N-(3-(2-(hydroxymethyl)pyrrolidine-1-carbonyl)phenyl)-2,5-dimethylbenzenesulfonamide], the concentration at half-maximal activity (AC50) is 67 µM.

Consider `Cc1cc(S(=O)(=O)Nc2csc(-c3ccccc3)n2)c(F)cc1Cl` [Example 146, 4-chloro-2-fluoro-5-methyl-N-(2-phenylthiazol-4-yl)benzenesulfonamide], for which the half-maximal activity concentration (AC50) is above 100 µM. Turning to `O=S(=O)(Nc1csc(-c2ccccc2)n1)c1ccccc1` [Example 147, N-(2-phenylthiazol-4-yl)benzenesulfonamide], the AC50 was above 100 µM. Same read-out and setting: with `Cc1cc(S(=O)(=O)Nc2csc(-c3ccccc3)n2)ccc1Cl` [Example 148, 4-chloro-3-methyl-N-(2-phenylthiazol-4-yl)benzenesulfonamide] the figure was above 100 µM; with `Cc1cc(S(=O)(=O)N[C@@H]2CCCN(c3ccccc3)C2)c(C)cc1Cl` [Example 149, (R)-4-chloro-2,5-dimethyl-N-(1-phenylpiperidin-3-yl)benzenesulfonamide], above 100 µM; with `Cc1cc(S(=O)(=O)N[C@@H]2CCCN(C(=O)c3ccccc3)C2)c(C)cc1Cl` [Example 150, (R)-N-(1-benzoylpiperidin-3-yl)-4-chloro-2,5-dimethylbenzenesulfonamide], above 100 µM. On the same count and under the same terms, with `O=S(=O)(Nc1csc(-c2ccccc2)n1)c1cccc(C(F)(F)F)c1` [Example 151, N-(2-phenylthiazol-4-yl)-3-(trifluoromethyl)benzenesulfonamide] the figure was 2 µM; with `O=S(=O)(Nc1csc(-c2ccccc2)n1)c1ccc2c(c1)CCO2` [Example 152, N-(2-phenylthiazol-4-yl)-2,3-dihydrobenzofuran-5-sulfonamide], 6 µM; with `Cc1cc(S(=O)(=O)N[C@@H]2CCCN(C(=O)N3CCCC3)C2)c(C)cc1Cl` [Example 153, (R)-4-chloro-2,5-dimethyl-N-(1-(pyrrolidine-1-carbonyl)piperidin-3-yl)benzenesulfonamide], above 100 µM. On the same count and under the same terms, the figure for `Cc1cc(S(=O)(=O)Nc2ccc3c(c2)CC(=O)N3)c(C)cc1Cl` [Example 185, 4-chloro-2,5-dimethyl-N-(2-oxoindolin-5-yl)benzenesulfonamide] is 15 µM. In the case of “(R)-2,5-dimethyl-N-(3-(3-methylmorpholine-4-carbonyl)phenyl)benzenesulfonamide [Example 1]”, the AC50 is 18 µM.
